Test results from patent US12582625B2, “Methods for treating neuroblastoma” (priority 2015, dated 2026).
Where “and” joins values, the source holds several entries; their conditions need not be identical. Equal entries are not always repeated. Entries after “also recorded” stand apart in the source; their conditions may differ.

Assays:
urinary polyamines = assay: NMTRC 002: urinary polyamine levels during DFMO therapy; format: in vivo, human
Method: Urinary Polyamine Levels. Patients were consented for urine analysis in NMTRC 002. […] Polyamines with at least one free primary amine were quantified using reverse-phase high-performance liquid chromatography (HPLC) as previously described (Thompson et al., 2010). Urinary N^1,N^12-diacetylspermine (N^1,N^12-Ac2Spm or DAS) was determined using the auto DAS reagent kit (Alfresa Pharma Co., Osaka, Japan), according to the manufacturer's instructions. The assay involves the specific binding between a bovine serum albumin-acetylspermine conjugate, as a DAS mimic, and colloidal gold antibody complexes, and has been previously described (Kawakita et al., 2011).

[1] = test system: refractory or relapsed neuroblastoma; assay: NMTRC 002: tumor response and progression free survival; format: in vivo, human; conditions: for PFS (days), individual patients: DFMO alone cycle 1, then with etoposide; for Status or Reason off study, individual patients: PF = progression free, PD = progressive disease
Method: Study Design and Treatment.
Tumor and clinical responses were monitored as secondary endpoints. Eighteen subjects were evaluated for efficacy. This study used the (RECIST) Response Evaluation Criteria measurements in Solid Tumor from the NCI (27) modified for pediatrics as well as MIBG or PET and bone marrow response. Tumor assessments/imaging studies were obtained at baseline>7 days from prior therapy and <21 days from the start of study therapy. These were repeated at the end of the first cycle and again after every other cycle.

[2] = test system: tumors harboring Ki-ras mutations; conditions: AOM-treated rats, reduced from 90% (Singh et al., 1994); cited from earlier work
NB cells = conditions: DFMO in the 50-150 μM range; cited from earlier work
[3] = ODC SNP rs2302615 genotype Any A
[4] = ODC SNP rs2302616 genotype Any T

## NCCCC(N)(C(=O)O)C(F)F (stereo not shown) [DFMO, 2,5-diamino-2-(difluoromethyl) pentanoic acid]
Urinary polyamines; DFMO dose 500 mg/m^2 BID
  DAS increase from Cycle 1 Day 1, individual patients: Yes and No
  UPA Cycle 1 Day 8 (sum of putrescine, N1AcSpd, N8AcSpd and DAS), individual patients: 4.20 and 15.70 and 11.69
Urinary polyamines; DFMO dose 750 mg/m^2 BID
  DAS increase from Cycle 1 Day 1, individual patients: No (2×) and Yes (3×)
  UPA Cycle 1 Day 8 (sum of putrescine, N1AcSpd, N8AcSpd and DAS), individual patients: 7.80 and 22.08 and 1.94 and 13.46
Urinary polyamines; DFMO dose 1000 mg/m^2 BID
  DAS increase from Cycle 1 Day 1, individual patients: No and Yes (2×)
  UPA Cycle 1 Day 8 (sum of putrescine, N1AcSpd, N8AcSpd and DAS), individual patients: 8.71 and 3.89 and 3.28
Urinary polyamines; DFMO dose 1500 mg/m^2 BID
  DAS increase from Cycle 1 Day 1, individual patients: Yes (4×) and No (3×)
  UPA Cycle 1 Day 8 (sum of putrescine, N1AcSpd, N8AcSpd and DAS), individual patients: 5.61 and 3.98 and 6.99 and 3.77 and 8.81 and 7.38 and 5.93
Urinary polyamines; [3]
  UPA (C1D1 − C8D1)/C1D1 × 100: 0.66 ± 92.00
Urinary polyamines; ODC SNP rs2302615 genotype GG
  UPA (C1D1 − C8D1)/C1D1 × 100: 23.26 ± 35.59
Urinary polyamines; [4]
  UPA (C1D1 − C8D1)/C1D1 × 100: 48.32 ± 18.24
Urinary polyamines; ODC SNP rs2302616 genotype GG
  UPA (C1D1 − C8D1)/C1D1 × 100: −24.46 ± 83.67
Urinary polyamines; after one week of DFMO therapy, GG genotype at rs2302616
  increase of urinary polyamine levels from baseline: ~25%
Urinary polyamines; after one week of DFMO therapy, minor T allele at rs2302616
  decrease of urinary polyamine levels from baseline: ~50%
Urinary polyamines; cycle 1, N=16 patients with complete data, P=1.000
  change in urinary N^1AcSpd between Day 8 and 15: No change
Urinary polyamines; disease progression within 100 days of therapy start
  patients with increased urinary DAS: 9/10
Urinary polyamines; first two weeks of treatment, population as a whole
  urinary N^1AcSpd contents: reduced
Urinary polyamines; patients with disease progression after 100 days from start of therapy
  average decrease of urinary polyamines from baseline: 1.57±3.37 μmol/g Creatinine
Urinary polyamines; patients with disease progression less than 100 days after start of therapy
  average increase of total urinary polyamines (putrescine+N^1AcSpd+N^8AcSpd+DAS) from baseline: 6.56±16.29 μmol/g Creatinine
Urinary polyamines; progression free up to 100 days
  patients with increased urinary DAS: 1/7
[1]; 2-4.5 years after starting DFMO
  patients alive without progression of disease: three subjects remain alive without progression of disease; also recorded: Three patients remain alive without progression of disease
[1]; 18 evaluable subjects
  subjects with best response of progressive disease: 5
  subjects with best response of stable disease by RECIST: 12
[1]; 18 evaluable subjects, MIBG evaluable disease only
  patients with best response of PR: 1
[1]; DFMO dose 500 mg/m^2 BID
  Best Response (CT/MIBG), individual patients: SD/PR
  PFS (days), individual patients: 94 days and 1573 days and 1559 days
  Status or Reason off study, individual patients: Alive (PF)
[1]; DFMO dose 750 mg/m^2 BID
  PFS (days), individual patients: 418 days and 103 days and 67 days and 57 days and 31 days
[1]; DFMO dose 1000 mg/m^2 BID
  PFS (days), individual patients: 239 days and 64 days and 59 days
[1]; DFMO dose 1500 mg/m^2 BID
  Best Response (CT/MIBG), individual patients: SD/PR; also recorded: (CT Neg)/PR
  PFS (days), individual patients: 663 days and 209 days and 136 days and 62 days (3×) and 21 days
  Status or Reason off study, individual patients: Alive (PF) and 2nd Leukemia
[1]; NMTRC 002, all evaluable subjects
  mean progression free survival (PFS): 420 days
[1]; [3]
  PFS: 282.1 ± 499.6
[1]; ODC SNP rs2302615 genotype GG
  PFS: 326.7 ± 501.6
[1]; [4]
  PFS: 498.0 ± 635.4
[1]; ODC SNP rs2302616 genotype GG
  PFS: 110.8 ± 119.1
[1]; all 18 evaluable subjects, 95% CI: 62-418 days (Saulnier Sholler et al., 2015)
  median progression free survival (PFS): 80.5 days
[1]; patients with GG at rs2302616
  PFS: 110 days
[1]; patients with any minor T allele at rs2302616
  PFS: 498 days
[1]; three subjects evaluated by PET
  response by PET scans: two had a complete response and one a partial response
[2]
  tumors harboring Ki-ras mutations: 36%
NB cells
  killing of NB cells: do not kill NB cells
